From patent publication US8940291B2 (priority 2009, dated 2015)
“Also recorded” adds a separate entry of the source. Like-named read-outs stand apart in the source and are kept apart here.

How the values were obtained:
[1] = test system: 4T1 and CT26 cells
[2] = test system: VSVΔ51; type: cell-based, Vesicular stomatitis virus
[3] = test system: VSVΔ51; type: cell-based, Vesicular stomatitis virus; remark: listed apart in the source
[4] = test system: 4T1 cells; type: cell-based, mouse; conditions: 48 h
[5] = test system: wild type VSV; type: cell-based, Vesicular stomatitis virus
[6] = test system: IFN mediated antiviral state in U251 cells; type: cell-based, human
[7] = test system: VSVΔ51-induced genes; type: cell-based, mouse
[8] = test system: B16 melanoma cells; test: Cell cycle analysis in B16 melanoma cells (propidium iodine, flow cytometry); type: cell-based, mouse; conditions: over 48 hours
[9] = test system: ISRE-luciferase reporter; type: cell-based, human
[10] = test system: oncolytic vaccinia virus (VVdd); type: cell-based; conditions: 20 μM; 72 h
[11] = test system: CT26 cells; type: cell-based, mouse; conditions: 48 h
[12] = test system: VSVΔ51; type: cell-based, Vesicular stomatitis virus; conditions: 40 h
[13] = test system: VSVΔ51; type: cell-based, Vesicular stomatitis virus; remark: listed apart in the source
[14] = test system: IFN responsive U251 cells; type: cell-based, human
[15] = test system: wild type VSV (wtVSV); type: cell-based, Vesicular stomatitis virus
[16] = test system: VSVΔ51; type: cell-based, Vesicular stomatitis virus; conditions: 48 hours
[17] = test system: VSVΔ51; type: cell-based, Vesicular stomatitis virus; remark: listed apart in the source
[18] = test system: VSVΔ51; type: cell-based, Vesicular stomatitis virus; remark: listed apart in the source
[19] = test system: VSVΔ51; type: cell-based, Vesicular stomatitis virus; remark: listed apart in the source
[20] = 4 h pre-treatment, with and without VSVΔ51

**Q.** How did the “VSV-induced cytotoxicity (VSV/CTRL kill ratio)” value [1, 20] turn out when `COC(=O)Nc1nc2ccc(C(=O)c3cccs3)cc2[nH]1` [Nocodazole] was run?
**A.** The value was “enhance VSV-induced cytotoxicity”.

**Q.** How did the “increase in viral titer” value [2] turn out when `O=C1OC(c2ccccc2)C(Cl)=C1Cl` (stereo not shown) [VSe1, 3,4-dichloro-5-phenyl-2,5-dihydrofuran-2-one] was run?
**A.** The value was 1000 fold.

**Q.** What about the “differential in replication between normal and cancerous tissues” value [3] of the same molecule?
**A.** The value was “roughly 1000 fold”.

**Q.** And the “growth of VSVΔ51 in tumour tissue” value [3]?
**A.** The value was “over 100 fold”.

**Q.** What about the “VSVΔ51-GFP growth and spread (green fluorescence)” value ([3]; 40 μM) of the same molecule?
**A.** The value was “significantly enhanced”.

**Q.** What about the “cell killing in combination with VSVΔ51 (combination index)” value [4] of the same molecule?
**A.** The value was “synergistic cell killing”.

**Q.** What about the “growth of VSV with a wild type M gene” value [5] of the same molecule?
**A.** The value was “minimal ability to enhance the growth”.

**Q.** And the “sensitivity of IFN-protected cells to VSVΔ51” value [6]?
**A.** Its value is “partially re-sensitized to VSVΔ51; also recorded: can overcome pre-existing IFN mediated antiviral state”.

**Q.** What about the “share of VSVΔ51-induced cellular genes whose induction is reduced” value [7] of the same molecule?
**A.** Its value is “over 96%”.

**Q.** And the cell cycle distribution ([8]; listed as DCPDF)?
**A.** Its cell cycle distribution is “cells ultimately accumulate in G1; also recorded: block in G1”.

**Q.** What about the “interferon dependent transcription (luciferase)” value [9] of the same molecule?
**A.** Its value is “blunted”.

**Q.** And the “VVdd spread and viral output” value [10]?
**A.** The value was “able to enhance the spread and replication; also recorded: enhanced spread and viral output; also recorded: enhances spread”.

**Q.** And the “cell killing in combination with VSVΔ51 (combination index)” value [11]?
**A.** Its value is “synergistic cell killing”.

**Q.** What about the “interferon protection from VSVΔ51 infection” value [12] of the same molecule?
**A.** Its value is “partially overcome”.

**Q.** What about the “replication of VSVΔ51 in normal tissues” value [13] of the same molecule?
**A.** The value was “did not increase the replication”.

**Q.** With Parbendazole as the molecule, how does the “VSV-induced cytotoxicity (VSV/CTRL kill ratio)” value [1, 20] read?
**A.** Its value is “enhance VSV-induced cytotoxicity”.

**Q.** Which “share of VSVΔ51-induced cellular genes whose induction is reduced” value [7] does the source give for `O=C(CCCCCCC(=O)Nc1ccccc1)NO` [SAHA, reference compound] here?
**A.** The value was 79%.

**Q.** How did the “VSV-induced cytotoxicity (VSV/CTRL kill ratio)” value [1, 20] turn out when `CCCSc1ccc2nc(NC(=O)OC)[nH]c2c1` [Albendazole] was run?
**A.** The value was “enhance VSV-induced cytotoxicity”.

**Q.** Which “VSV-induced cytotoxicity (VSV/CTRL kill ratio)” value [1, 20] does the source give for `CCC1=C[C@@H]2CN(C1)Cc1c([nH]c3ccccc13)[C@@](C(=O)OC)(c1cc3c(cc1OC)N(C)[C@H]1[C@@](O)(C(=O)OC)[C@H](OC(C)=O)[C@]4(CC)C=CCN5CC[C@]31[C@@H]54)C2` [Vinorelbine base, Vinorelbine Base] here?
**A.** Its value is “enhance VSV-induced cytotoxicity”.

**Q.** `CC(/C=C/C(=O)NO)=C\[C@@H](C)C(=O)c1ccc(N(C)C)cc1` [TSA, reference compound] was tested. Which cell cycle distribution [8] did it give?
**A.** The cell cycle distribution was “blocks the cell cycle in G1”.

**Q.** With `COc1cc2c(c(OC)c1OC)-c1ccc(OC)c(=O)cc1[C@@H](NC(C)=O)CC2` [colchicine] as the molecule, how does the VSV oncolysis [14] read?
**A.** Its VSV oncolysis is “enhanced VSV oncolysis”.

**Q.** What about the “ability to overcome IFN-induced antiviral effects” value [14] of the same molecule?
**A.** Its value is “could not overcome IFN-induced antiviral effects”.

**Q.** What about the “number of GFP positive cells with wtVSV” value [15] of the same molecule?
**A.** The value was “appeared to decrease the number of GFP positive cells”.

**Q.** What about the “lowest dose with strong enhancement of VSVΔ51 (GFP) spread” value [16] of the same molecule?
**A.** Its value is 80 nM.

**Q.** And the “enhancement of VSVΔ51 spread” value [17]?
**A.** Its value is “not observed in normal MRC-5 cells”.

**Q.** What about the “enhancement of virus production (maximum)” value [18] of the same molecule?
**A.** The value was roughly 1000 fold.

**Q.** What about the VSVΔ51 spread [19] of the same molecule?
**A.** The VSVΔ51 spread was “enhanced spread of VSVΔ51”.

**Q.** What about the “VSV-induced cytotoxicity (VSV/CTRL kill ratio)” value [1] of the same molecule?
**A.** Its value is “enhance VSV-induced cytotoxicity”.
